Measurements published in patent EP0495091B1 (Metabasis Therapeutics Inc., priority 1990, dated 1992).
Where a name gives a salt, the structure may show the parent alone. Read-outs that look alike come from different tables or passages of the source.

Experiments:
Isolated rat hearts = assay: Improved functional recovery in isolated hearts (Langendorff, post-ischemic LVDP); conditions: 5 µM in perfusion buffer; 30 min ischemia, 30 min reperfusion; number in brackets = hearts
Method: Isolated rat hearts were cannulated via the ascending aorta and attached to a perfusion apparatus according to the method of Langendorff. The hearts were perfused at a constant pressure of 100 cm of H2O with a modified Krebs-Henseleit buffer (pH 7.4) at 37°C. As a measure of heart function, left ventricular developed pressure (LVDP) was continuously monitored. Following equilibration of the hearts for a period of 30 min., the hearts were subjected to reduced flow i.e. ischemia, by reducing the pressure to 10 cm of H2O for 30 min. Flow was then restored by returning the pressure to its original level (100 cm of H2O) for a further 30 min.

[1] = molecular target: T1, NBTI-specific adenosine transport site (Homo sapiens, UniProt Q99808); assay: [3H]-NBTI binding assay; conditions: 50% displacement of bound [3H]-NBTI (0.5 nM); neuronal membrane protein, 30 minutes, pH 7.4, room temperature; read-out: ED50 (the source's name)
T1 construct: incubated for 30 minutes with 0.5 mg neuronal membrane protein together with 0.5 nM [^3H]-NBTI; from tissue
T1 sequence (Q99808 1-456): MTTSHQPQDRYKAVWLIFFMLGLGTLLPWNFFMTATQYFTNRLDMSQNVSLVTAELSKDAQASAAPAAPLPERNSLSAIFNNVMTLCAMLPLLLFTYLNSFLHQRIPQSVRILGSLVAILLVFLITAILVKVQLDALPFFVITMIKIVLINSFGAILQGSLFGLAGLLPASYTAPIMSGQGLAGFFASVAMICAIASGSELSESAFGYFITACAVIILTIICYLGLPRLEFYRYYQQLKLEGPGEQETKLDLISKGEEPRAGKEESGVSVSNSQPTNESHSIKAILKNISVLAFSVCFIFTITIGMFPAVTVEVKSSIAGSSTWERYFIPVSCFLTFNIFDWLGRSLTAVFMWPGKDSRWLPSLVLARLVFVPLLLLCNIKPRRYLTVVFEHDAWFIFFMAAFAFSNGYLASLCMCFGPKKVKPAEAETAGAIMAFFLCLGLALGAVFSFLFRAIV
Method: Increasing concentrations of the test compounds were incubated for 30 minutes with 0.5 mg neuronal membrane protein together with 0.5 nM [^3H]-NBTI in a Tris buffer (pH 7.4) at room temperature. The assays were quenched and membranes collected by rapid filtration. Filters were then solubilized and radioactivity determined by scintillation counting.

[2] = test system: longitudinal muscle from the guinea pig ileum; assay: Inhibition of stimulated contraction in isolated ileum
Method: Parallel platinum electrodes were used to deliver electrical current at 1 minute intervals at a voltage adequate to induce contraction of 90% of maximal.

[3] = test system: coronary endothelial cells; assay: Inhibition of adenosine utilization in cell culture; assay type: cell-based; conditions: for inhibition at 5 µM / inhibition at 50 µM: Endothelial cell, read-out: Inhibition of Adenosine Utilization (%)
Method: Inhibition of adenosine utilization was determined by measuring the concentration of extracellular adenosine by scintillation counting following separation by thin layer chromatography (TLC).

[4] = concentration which inhibited electrically stimulated contraction by 50%, read-out: IC50
[5] = 50 µM test compound, 1 µM [3H] adenosine, 15 minutes
[6] = Cavia porcellus, concentration which inhibited electrically stimulated contraction by 50%, read-out: IC50
[7] = 5 µM test compound, 1 µM [3H] adenosine, 15 minutes

Compound | Function Recovery % Baseline LVDP (% of hearts) (Isolated rat hearts) | EC50 [1] [µM] | also measured
NC(=O)c1ncn([C@@H]2O[C@H](CNCc3ccccc3)[C@@H](O)[C@H]2O)c1N [Compound No. 66, 5-Amino-1-β-D-(5-benzylamino-5-deoxyribofuranosyl)imidazole-4-carboxamide] | 88.5±1.8 (5) % | – | –
Nc1c(C(=O)Nc2ccc([N+](=O)[O-])cc2)ncn1[C@@H]1O[C@H](CO)[C@@H](O)[C@H]1O [Compound No. 58, 5-Amino-1-β-D-ribofuranosylimidazole-4-N-(4-nitrophenyl)carboxamide] | – | 80 | –
Nc1c(C(=O)NC[C@H](O)c2ccc(O)c(O)c2)ncn1[C@@H]1O[C@H](CO)[C@@H](O)[C@H]1O [compound 42, (R)-5-Amino-1-β-D-ribofurano-sylimidazole-4-N-[2-hydroxy-2-(3,4-dihydroxyphenyl)ethyl]carboxamide] | – | – | IC50 [2, 4]: 6 µM
CNC[C@H]1O[C@@H](n2cnc(C(N)=O)c2N)[C@H](O)[C@@H]1O [Compound No. 63, 5-Amino-1-β-D-(5-deoxy-5-methylaminoribofuranosyl)imidazole-4-carboxamide] | 79.7±4.8 (4) % | – | –
Nc1c(C(=O)Nc2ccccc2Cl)ncn1[C@@H]1O[C@H](CO)[C@@H](O)[C@H]1O [Compound No. 64, 5-Amino-1-β-D-ribofuranosylimidazole-4-N-(2-chlorophenyl)carboxamide] | – | 48 | –
Nc1c(C(=O)N2CCN(c3ccc([N+](=O)[O-])cc3)CC2)ncn1[C@@H]1O[C@H](CO)[C@@H](O)[C@H]1O [Compound No. 60, 5-Amino-4-[1-[4-(4-nitrophenyl)]piperazinocarbamoyl]-1-β-D-ribofuranosylimidazole] | – | 17 | –
C[C@@H](NC(=O)c1ncn([C@@H]2O[C@H](CO)[C@@H](O)[C@H]2O)c1N)c1ccc([N+](=O)[O-])cc1 [Compound No. 49] | – | 7 | inhibition at 5 µM [3]: 30 ± 4%; inhibition at 50 µM [3]: 33 ± 8%
Nc1c(C(=O)Nc2ccc(I)cc2)ncn1[C@@H]1O[C@H](CO)[C@@H](O)[C@H]1O [Compound No. 57, 5-Amino-1-β-D-ribofuranosyl-imidazole-4-N-(4-iodophenyl)carboxamide] | – | 80 | –
C[C@H]1O[C@@H](n2c(S)nc(C(N)=O)c2N)[C@H](O)[C@@H]1O [Compound No. 67, 5-Amino-2-thio-1-β-D-(5-deoxyribofuranosyl)imidazole-4-carboxamide] | 77.4±5.7 (3) % | – | –
Nc1c(C(=O)NCc2ccc(S(N)(=O)=O)cc2)ncn1[C@@H]1O[C@H](CO)[C@@H](O)[C@H]1O [Compound No. 75, 5-Amino-1-β-D-ribofuranosylimidazole-4-N-[(4-sulfamoylphenyl)methyl]carboxamide] | – | – | Inhibition of Adenosine Utilization (%) [3, 5]: 30 ± 3%
NC(=O)c1ncn([C@@H]2O[C@H](CNCc3ccc(Cl)cc3)[C@@H](O)[C@H]2O)c1N [Compound No. 76, 5-Amino-1-(5-(4-chlorobenzyl-amino)-5-deoxyβ-D-ribofuranosyl)imidazole-4-carboxamide] | 74.0±2.5 (6) % | – | –
Nc1c(C(=O)NCc2ccccc2Cl)ncn1[C@@H]1O[C@H](CO)[C@@H](O)[C@H]1O [Compound No. 24, 5-Amino-1-β-D-ribofuranosylimidazole-4-N-[(2-chlorophenyl)methyl]carboxamide] | – | 300 | IC50 ([2]; Cavia porcellus): 400 µM
Cl.NC[C@H]1O[C@@H](n2cnc(C(=O)NC3CCCC3)c2N)[C@H](O)[C@@H]1O [Compound No. 37, 5-Amino-1-(5-amino-5-deoxy-β-D-ribofuranosyl)imidazole-4-N-(cyclopentyl)carboxamide Hydrochloride] | 71.9±3.0 (5) % | – | –
CCN(CC)C[C@H]1O[C@@H](n2cnc(C(N)=O)c2N)[C@H](O)[C@@H]1O [compound 65, 5-Amino-1-(5-deoxy-5-diethylaminoribo-β,D-furanosyl)imidazole-4-carboxamide] | 72.3±5.6 (4) % | – | –
Nc1c(C(=O)Nc2ccc(Br)cc2)ncn1[C@@H]1O[C@H](CO)[C@@H](O)[C@H]1O [Compound No. 55, 5-Amino-1-β-D-ribofuranosylimidazole-4-N-(4-bromophenyl)carboxamide] | – | 60 | –
Nc1c(C(=O)NCc2cccc(I)c2)ncn1[C@@H]1O[C@H](CO)[C@@H](O)[C@H]1O [Compound No. 44, 5-Amino-1-β-D-ribofuranosyl-imidazole-4-N-[(3-iodophenyl)methyl]carboxamide] | – | – | IC50 [2, 6]: 20 µM
Nc1c(C(=O)NCCCc2ccc([N+](=O)[O-])cc2)ncn1[C@@H]1O[C@H](CO)[C@@H](O)[C@H]1O [Compound No. 73] | – | – | Inhibition of Adenosine Utilization (%) [3, 7]: 16 ± 0%; Inhibition of Adenosine Utilization (%) [3, 5]: 33 ± 9%
Nc1c(C(=O)N2CCc3ccccc32)ncn1[C@@H]1O[C@H](CO)[C@@H](O)[C@H]1O [Compound No. 48, 5-Amino-1-β-D-ribofuranosyl-imidazole-4-N-indolinylcarboxamide] | – | 22 | inhibition at 5 µM [3]: 23 ± 3%; inhibition at 50 µM [3]: 25 ± 2%
Nc1c(C(=O)NCc2ccc([N+](=O)[O-])cc2)ncn1[C@@H]1O[C@H](CI)[C@@H](O)[C@H]1O [Compound No. 46, 5-Amino-1-(5-iodo-5-deoxy-β-D-ribofuranosyl)imidazole-4-N-[(4-nitrophenyl)methyl]carboxamide] | – | 8 | inhibition at 5 µM [3]: 19 ± 4%; inhibition at 50 µM [3]: 30 ± 9%
Nc1c(C(=O)NCc2ccc(C(F)(F)F)cc2)ncn1[C@@H]1O[C@H](CO)[C@@H](O)[C@H]1O [Compound No. 74] | 73.3±3.3 (6) % | – | –
Nc1c(C(=O)NCCCCCCNC(=O)c2ncn([C@@H]3O[C@H](CO)[C@@H](O)[C@H]3O)c2N)ncn1[C@@H]1O[C@H](CO)[C@@H](O)[C@H]1O [Compound No. 68, N,N'-bis-(5-amino-1-β-D-ribofuranosylimidazole-4-carbonyl)-1,6-diaminohexane] | 75.3±2.2 (4) % | – | –
Nc1c(C(=O)NC2CCC(NC(=O)c3ncn([C@@H]4O[C@H](CO)[C@@H](O)[C@H]4O)c3N)CC2)ncn1[C@@H]1O[C@H](CO)[C@@H](O)[C@H]1O (stereo partly drawn) [Compound No. 69, N,N'-Bis-(5-Amino-1-β-D-ribofuranosylimidazole-4-carbonyl)-1,4-diaminocyclohexane] | 77.0±2.8 (6) % | – | –
Nc1c(C(=O)NCc2cccc(Cl)c2)ncn1[C@@H]1O[C@H](CO)[C@@H](O)[C@H]1O [Compound No. 35, 5-amino-1-β-D-ribofuranosyl-imidazole-4-N[(3-chlorophenyl)methyl]carboxamide] | – | – | IC50 [2, 6]: 60 µM
C[C@H](NC(=O)c1ncn([C@@H]2O[C@H](CO)[C@@H](O)[C@H]2O)c1N)c1ccc([N+](=O)[O-])cc1 [Compound No. 50, (S)-5-Amino-1-β-D-ribofuranosylimidazole-4-N-[1-(4-nitrophenyl)ethyl]carboxamide] | – | 28 | –
CSC[C@H]1O[C@@H](n2cnc(C(N)=O)c2N)[C@H](O)[C@@H]1O [Compound No. 54, 5-Amino-1-(5-deoxy-5-methylthio-β-D-ribofuranosyl)imidazole-4-carboxamide] | – | 28 | –
CN(C)c1ccc(CNC(=O)c2ncn([C@@H]3O[C@H](CO)[C@@H](O)[C@H]3O)c2N)cc1 [Compound No. 41, 5-Amino-1-β-D-ribofuranosylimidazole-4-N(4-dimethylaminobenzyl)-carboxamide hydrochloride] | – | – | IC50 [2, 4]: 100 µM
Nc1c(C(=O)NC2CC3CCC2C3)ncn1[C@@H]1O[C@H](CO)[C@@H](O)[C@H]1O (stereo partly drawn) [Compound No. 45, 5-Amino-1-β-D-ribofuranosylimidazole-4-N-(2-endo-norbornyl)carboxamide] | – | 90 | IC50 ([2]; Cavia porcellus): 100 µM
[N-]=[N+]=NC[C@H]1O[C@@H](n2cnc(C(=O)NCc3ccc(Cl)cc3)c2N)[C@H](O)[C@@H]1O [Compound No. 52, 5-Amino-1-(5-azido-5-deoxy-β-D-ribofuranosyl)imidazole-4-N-[(4-chlorophenyl)methyl]-carboxamide] | 86.0±2.5 (5) % | – | inhibition at 5 µM [3, 7]: 56 ± 2%; inhibition at 50 µM [3, 5]: 71 ± 1%
